Experimental data as given in patent publication US4499091A, “1-Amino (or substituted amino)-1,4-dihydro-4-oxo-6-fluoro-7-heterylquinoline-3-carboxylic acids and their use as antibacterial agents” (Sterling Drug Inc., priority 1983, dated 1985).
Values after ≈ are worked out from the molar mass of the structure shown. Where two headings read alike, the source gives them in different places.

Key:
Escherichia coli Vogel [1] = test: in vitro antibacterial activity, serial dilution (MIC); type: cell-based; settings: 18-20 hours static incubation, read-out: Minimal Inhibitory Concentration (MIC)
Procedure: (§1) The in vitro antibacterial activity of the compounds of the invention was determined by conventional serial dilution procedures. Bacterial cultures were grown in tryptose phosphate broth or brain heart infusion broth (containing heat-inactivated normal horse serum for tests with S. pyogenes) overnight at 37° C. and subsequently diluted in double strength broth to provide bacterial inocula of about 2×10^5 cells/ml. Aqueous solutions of the compounds of the invention were prepared by dissolving the free acid form in 0.5N sodium hydroxide. The solutions were diluted with sterile distilled water to 1000 mcg/ml of compound in terms of the free acid. Serial two-fold dilutions of the compound stock solutions were prepared in water and 0.5 ml of each dilution was transferred to sets of tubes, one set for each bacterial inoculum.

[2] = tested on: Klebsiella pneumoniae 39645; test: as above; type: cell-based; settings: 18-20 hours static incubation, read-out: Minimal Inhibitory Concentration (MIC)
Procedure: as §1

Proteus mirabilis MGH-1 = test: as above; type: cell-based; settings: MGH1, 18-20 hours static incubation, read-out: Minimal Inhibitory Concentration (MIC)
Procedure: as §1

Escherichia coli Vogel [3] = test: in vivo antibacterial activity in mice infected with E. coli (PD50); set-up: species or system mouse (female) infected with Escherichia coli; settings: 168 h
Procedure: (§2) The in vivo antibacterial activity of the compounds of the invention was determined in female mice, 18-20 grams each, by the following procedure:
(§3) Aqueous solutions of the compounds to be tested were prepared by dissolving the free acid form in dilute sodium hydroxide and diluting the solution with distilled water to be desired volume.
(§4) Cultures of Escherichia coli Vogel prepared in brain heart infusion broth, cultures of Klebsiella pneumoniae 39645 grown in tryptose phosphate broth with 5% rabbit serum diluted in the same broth and cultures of Pseudomonas aeruginosa MGH-2 grown on brain heart infusion agar and suspended in physiological saline, were used to infect the mice as follows:
Mice infected with E. coli were medicated once (0.5 ml) one-half hour post infection, the test compound being administered by either the subcutaneous (s.c.) or oral (p.o.) route. Deaths were recorded daily for seven days.
(§5) Groups of ten animals each for four or five dose levels were thus treated and the number of survivors in each group recorded. The fifty percent protective dose values (PD50) were then calculated.

[4] = tested on: Klebsiella pneumoniae 39645; test: in vivo antibacterial activity in mice infected with K. pneumoniae (PD50); set-up: species or system mouse (female) infected with Klebsiella pneumoniae
Procedure: as §2, §3, §4
K. pneumoniae: mice were inoculated intramuscularly in the right hind leg with 0.2 ml of the bacterial test inoculum (2.05×10^4 cells/ml).
Mice infected with K. pneumoniae were medicated at the following times: seventeen hours and one hour preinfection, six hours postinfection and twice a day for the next three days. The test compound was administered by both subcutaneous (0.2 ml) and oral (0.5 ml) routes. Deaths were recorded daily for fourteen days.
as §5

Proteus vulgaris 9920 = test: in vitro antibacterial activity, serial dilution (MIC); type: cell-based; settings: 18-20 hours static incubation, read-out: Minimal Inhibitory Concentration (MIC)
Procedure: as §1

[5] = tested on: Staphylococcus aureus Smith; test: as above; type: cell-based; settings: 18-20 hours static incubation, read-out: Minimal Inhibitory Concentration (MIC)
Procedure: as §1

[6] = tested on: Streptococcus pyogenes C203; test: as above; type: cell-based; settings: 18-20 hours static incubation, read-out: Minimal Inhibitory Concentration (MIC)
Procedure: as §1

[7] = tested on: Pseudomonas aeruginosa MGH-2; test: as above; type: cell-based; settings: MGH2, 18-20 hours static incubation, read-out: Minimal Inhibitory Concentration (MIC)
Procedure: as §1

[8] = Klebsiella pneumoniae, 39645, sc, 336 h, mouse, K. pneumoniae, s.c., pre- and postinfection, 14 days, read-out: Protective Dose (PD50)
[9] = sc, mouse, E. coli, s.c., once one-half hour post infection, 7 days, read-out: Protective Dose (PD50)

Row | Structure (SMILES) | MIC (Escherichia coli Vogel [1]) | MIC [2] | MIC (Proteus mirabilis MGH-1) | ED50 (Escherichia coli Vogel [3]; mouse, E. coli, route not stated, read-out: fifty percent protective dose) | ED50 ([4]; Klebsiella pneumoniae, 39645, 336 h, mouse, K. pneum., route not stated, read-out: fifty percent protective dose) | MIC (Proteus vulgaris 9920) | MIC [5] | MIC [6] | MIC [7] | ED50 ([4]; Klebsiella pneumoniae, 39645, po, 336 h, mouse, K. pneumoniae, p.o., pre- and postinfection, 14 days, read-out: Protective Dose (PD50)) | ED50 [4, 8] | ED50 (Escherichia coli Vogel [3]; sc, read-out: Protective Dose (PD50)) | ED50 ([4]; Klebsiella pneumoniae, 39645, sc, 336 h, read-out: Protective Dose (PD50)) | ED50 (Escherichia coli Vogel [3]; [9])
1 | CNn1cc(C(=O)O)c(=O)c2cc(F)c(N3CC[N+](C)([O-])CC3)cc21 [4'-oxide] | 16 µg/mL (≈ 45.7 µM) | 32 µg/mL (≈ 91.3 µM) | 32 µg/mL (≈ 91.3 µM) |  |  |  |  |  |  |  |  |  |  | 
2 | CNn1cc(C(=O)O)c(=O)c2cc(F)c(Cl)cc21 [7-Chloro-6-fluoro-1,4-dihydro-1-methylamino-4-oxo-3-quinolinecarboxylic acid] | 1 µg/mL (≈ 3.69 µM) | 1.95 µg/mL (≈ 7.2 µM) | 1 µg/mL (≈ 3.69 µM) | 56 mg/kg | 186 mg/kg |  |  |  |  |  |  |  |  | 
3 | CCCNn1cc(C(=O)O)c(=O)c2cc(F)c(Cl)cc21 [7-Chloro-6-fluoro-1,4-dihydro-4-oxo-1-propylamino-3-quinolinecarboxylic acid] | 15.6 µg/mL (≈ 52.2 µM) | 31.3 µg/mL (≈ 105 µM) |  |  |  | 3.9 µg/mL (≈ 13.1 µM) | 15.6 µg/mL (≈ 52.2 µM) | 15.6 µg/mL (≈ 52.2 µM) |  |  |  |  |  | 
4 | CNn1cc(C(=O)O)c(=O)c2cc(F)c(N3CCN(C)CC3)cc21 [Example 1, 6-Fluoro-1,4-dihydro-1-methylamino-7-(4-methyl-1-piperazinyl)-4-oxo-3-quinolinecarboxylic acid] | 0.25 µg/mL (≈ 0.748 µM) | 0.25 µg/mL (≈ 0.748 µM) | 0.5 µg/mL (≈ 1.5 µM) |  |  | 0.125 µg/mL (≈ 0.374 µM) |  |  | 1 µg/mL (≈ 2.99 µM) | 10.6 mg/kg | 8.8 mg/kg |  |  | 
5 | Nn1cc(C(=O)O)c(=O)c2cc(F)c(N3CCNCC3)cc21 [Example 2, 1-Amino-6-fluoro-1,4-dihydro-4-oxo-7-(1-piperazinyl)-3-quinolinecarboxylic acid] |  |  |  |  |  |  | 31.3 µg/mL (≈ 102 µM) |  | 62.5 µg/mL (≈ 204 µM) |  |  | > 200 mg/kg | > 200 mg/kg | 
6 | CN1CCN(c2cc3c(cc2F)c(=O)c(C(=O)O)cn3N)CC1 [Example 3, 1-Amino-6-fluoro-1,4-dihydro-4-oxo-7-(4-methyl-1-piperazinyl)-3-quinolinecarboxylic acid] | 2 µg/mL (≈ 6.24 µM) | 2 µg/mL (≈ 6.24 µM) | 2 µg/mL (≈ 6.24 µM) |  |  | 1 µg/mL (≈ 3.12 µM) |  | 62.5 µg/mL (≈ 195 µM) | 15.6 µg/mL (≈ 48.7 µM) |  | 30.5 mg/kg |  |  | 3.13 mg/kg
7 | CCNn1cc(C(=O)O)c(=O)c2cc(F)c(N3CCN(C)CC3)cc21 [Example 5, 1-Ethylamino-6-fluoro-1,4-dihydro-7-(4-methyl-1-piperazinyl)-4-oxo-3-quinolinecarboxylic acid] | 0.5 µg/mL (≈ 1.44 µM) | 0.5 µg/mL (≈ 1.44 µM) |  |  |  | 0.25 µg/mL (≈ 0.718 µM) |  | 31.3 µg/mL (≈ 89.8 µM) |  |  | 90 mg/kg |  |  | 4.1 mg/kg
8 | CN1CCN(c2cc3c(cc2F)c(=O)c(C(=O)O)cn3N(C)C)CC1 [Example 7, 6-Fluoro-1-dimethylamino-1,4-dihydro-7-(4-methyl-1-piperazinyl)-4-oxo-3-quinolinecarboxylic acid] | 0.5 µg/mL (≈ 1.44 µM) | 2 µg/mL (≈ 5.74 µM) | 2 µg/mL (≈ 5.74 µM) |  |  | 0.12 µg/mL (≈ 0.344 µM) |  | 31.3 µg/mL (≈ 89.8 µM) | 2 µg/mL (≈ 5.74 µM) |  | 29 mg/kg |  |  | 1.66 mg/kg
9 | CCN1CCN(c2cc3c(cc2F)c(=O)c(C(=O)O)cn3NC)CC1 [Example 8, 7-(4-Ethyl-1-piperazinyl)-6-fluoro-1,4-dihydro-1-methylamino-4-oxo-3-quinolinecarboxylic acid] | 0.5 µg/mL (≈ 1.44 µM) | 0.5 µg/mL (≈ 1.44 µM) | 1 µg/mL (≈ 2.87 µM) |  |  | 0.25 µg/mL (≈ 0.718 µM) | 1 µg/mL (≈ 2.87 µM) |  | 2 µg/mL (≈ 5.74 µM) |  | 15.1 mg/kg |  |  | 1.4 mg/kg
10 | CCOC(=O)c1cn(NC)c2cc(N3CCN(C)CC3)c(F)cc2c1=O [Example 9, Ethyl 6-fluoro-1,4-dihydro-1-methylamino-7-(4-methyl-1-piperazinyl)-4-oxo-3-quinolinecarboxylate] | 62.5 µg/mL (≈ 172 µM) | 62.5 µg/mL (≈ 172 µM) | 12.5 µg/mL (≈ 34.5 µM) |  |  | 31.3 µg/mL (≈ 86.4 µM) |  |  |  |  | > 200 mg/kg |  |  | 4.4 mg/kg
